Results published in patent US20250109444A1, “DNA HYPOMETHYLATION AS A PREDICTIVE MARKER FOR CANCER THERAPY” (Fred Hutchison Cancer Center, priority 2023, published 2025).

How the values were obtained:
Format in all cases: cell-based
[1] = tested on: DHMC and non-DHMC cell lines; assay: Cell viability of DHMC and non-DHMC cancer cell lines treated with histone evicting anthracyclines; conditions: DHMC vs non-DHMC cell lines, wide spectrum of cancer cell lines
LNCaP cells [2] = assay: Cell viability of solvent vs SAMe treated LNCaP cells in response to AKTi (ipatasertib); conditions: prolonged treatment with methyl donor SAMe vs solvent
Description: (§1) FIGS. 4A, 4B. Modulation of global DNA methylation changes the sensitivity to AKT inhibitors. (4A) Cell viability curves for solvent (circle) and SAMe (square) treated LNCaP cells. The difference in cell viability in response to AKTi (ipatasertib) treatment is shown. (4B) Decitabine (DAC) and GSK344862 results in sensitization.

[3] = tested on: DHMC and non-DHMC cell lines; assay: Cell viability of DHMC and non-DHMC cancer cell lines treated with AKT inhibitors; conditions: DHMC vs non-DHMC cell lines, wide spectrum of cancer cell lines, in vitro
Description: FIGS. 2A, 2B. […] (2A) Cell viability curves for DHMC (black) and non-DHMC (light gray) cell lines treated with 3 different AKT inhibitors (afuresertib, AZD5363, ipatasertib). (2B) IC50s for DHMCs (black) and non-DHMCs (gray).

MALME3 cells = assay: Co-treatment with EED inhibitor and ipatasertib
Description: (§2) FIGS. 5A-5C. […] Increased dependency on PRC2-mediated chromatin repression is observed with AKT inhibition, creating a therapeutic vulnerability. Co-treatment with AKTi and PRC2 inhibitors (such as EZH2 or EED inhibitors) results in synergistic effects.

LNCaP cells [4] = assay: Co-treatment with EZH2 inhibitor and ipatasertib, cell viability; conditions: co-treatment with AKT inhibitor ipatasertib
Description: as §2

[5] = Sensitization to AKT inhibitors by pharmacologically induced DNA hypomethylation (DNMT inhibitors); conditions: pharmacologically induced DNA hypomethylation with DNMT inhibitor
Description: as §1

## dimethyl-doxorubicin
[1]
  Sensitivity of DHMC compared to non-DHMC (cell viability curves, IC50s): increased sensitivity

## C[S+](CC[C@H](N)C(=O)O)C[C@H]1O[C@@H](n2cnc3c(N)ncnc32)[C@H](O)[C@@H]1O (stereo partly drawn) [SAMe, S-Adenosylmethionine]
LNCaP cells [2]
  Change of sensitivity to AKTi (cell viability): decreases sensitivity to AKTi

## NC1(C(=O)N[C@@H](CCO)c2ccc(Cl)cc2)CCN(c2nc[nH]c3nccc2-3)CC1 [AZD5363, Capivasertib]
[3]
  Sensitivity of DHMC compared to non-DHMC (cell viability curves, IC50s): increased sensitivity

## CN(C)[C@H]1CN(C2CCc3cccc(F)c32)C[C@@H]1c1ccc(N2CCN(S(C)(=O)=O)CC2)cc1 (stereo partly drawn) [A395]
MALME3 cells
  Interaction with ipatasertib: Synergistic interaction

## CC(C)NC[C@@H](C(=O)N1CCN(c2ncnc3c2[C@H](C)C[C@H]3O)CC1)c1ccc(Cl)cc1 [ipatasertib, Ipatasertib]
[3]
  Sensitivity of DHMC compared to non-DHMC (cell viability curves, IC50s): increased sensitivity

## CC[C@H](C)n1cc(C)c2c(C(=O)NCc3c(C)cc(C)[nH]c3=O)cc(-c3ccc(N4CCNCC4)nc3)cc21 [GSK126]
LNCaP cells [4]
  Interaction with ipatasertib (cell viability): synergistic reduction in cell viability

## CCc1c(C#N)c(SC(C(N)=O)c2ccccc2)nc(N(C)C)c1C#N (stereo not drawn) [GSK-3484862]
[5]
  Change of sensitivity to AKT inhibitors (AKTi): increases sensitivity to AKT inhibitors

## CC[C@@]1(O)C[C@H](O[C@H]2C[C@H](N(C)C)[C@H](O[C@H]3C[C@H](O)[C@H](O[C@H]4CCC(=O)[C@H](C)O4)[C@H](C)O3)[C@H](C)O2)c2c(cc3c(c2O)C(=O)c2c(O)cccc2C3=O)[C@H]1C(=O)OC [aclarubicin]
[1]
  Sensitivity of DHMC compared to non-DHMC (cell viability curves, IC50s): increased sensitivity

## Cn1ncc(Cl)c1-c1cc(C(=O)N[C@H](CN)Cc2cccc(F)c2)sc1Cl [afuresertib, Afuresertib]
[3]
  Sensitivity of DHMC compared to non-DHMC (cell viability curves, IC50s): increased sensitivity
